Drawing on PubChem BioAssay AID1745844 (Carcinogenic Potency Database (CPDB), 2022), this text covers TD50 and carcinogen call for 6 compounds.

The data set relates to rodent lifetime carcinogenesis bioassay, tumor incidence TD50. The experiment in a line: chronic cancer bioassays in animals – CPDB, compiled studies (AID 1745844).

Molecules are shown by their SMILES. Active and inactive are the calls of the source. No rule for the calls is given here.

Consider `CCCc1ccc2c(c1)OCO2`, for which the TD50 was 305 mg/kg/day (mouse, strain B6AKF1, females, oral dosing, site: any site (literature study), lesion: several types, types named in the paper, dosed 81 weeks, study length 81 weeks); 1400 mg/kg/day (mouse, strain B6AKF1, females, oral dosing, site: liver, lesion: angioma, dosed 81 weeks, study length 81 weeks); 739 mg/kg/day (mouse, strain B6AKF1, females, oral dosing, site: lung, lesion: adenoma, dosed 81 weeks, study length 81 weeks); 84.7 mg/kg/day (mouse, strain B6AKF1, females, oral dosing, site: stomach, lesion: papilloma, dosed 81 weeks, study length 81 weeks); 86.6 mg/kg/day (mouse, strain B6AKF1, males, oral dosing, site: any site (literature study), lesion: several types, types named in the paper, dosed 81 weeks, study length 81 weeks); 117 mg/kg/day (mouse, strain B6AKF1, males, oral dosing, site: liver, lesion: hepatoma, dosed 81 weeks, study length 81 weeks). Moreover, the TD50 runs as follows: (mouse, strain B6AKF1, males, oral dosing, site: lung, lesion: adenoma, dosed 81 weeks, study length 81 weeks) 323 mg/kg/day; (mouse, strain B6AKF1, males, oral dosing, site: lung, lesion: several types, types named in the paper, dosed 81 weeks, study length 81 weeks) 448 mg/kg/day; (mouse, strain B6C3F1, females, oral dosing, site: any site (literature study), lesion: several types, types named in the paper, dosed 81 weeks, study length 81 weeks) 170 mg/kg/day; (mouse, strain B6C3F1, females, oral dosing, site: lung, lesion: adenoma, dosed 81 weeks, study length 81 weeks) 230 mg/kg/day; (mouse, strain B6C3F1, males, oral dosing, site: any site (literature study), lesion: several types, types named in the paper, dosed 81 weeks, study length 81 weeks) 107 mg/kg/day; (mouse, strain B6C3F1, males, oral dosing, site: liver, lesion: hepatoma, dosed 81 weeks, study length 81 weeks) 90 mg/kg/day. For the same compound, the TD50 is, setting by setting: (mouse, strain B6C3F1, males, oral dosing, site: lung, lesion: adenoma, dosed 81 weeks, study length 81 weeks) 358 mg/kg/day; (rat, strain Osborne-Mendel, both sexes, in feed, site: esophagus, lesion: several types, types named in the paper, dosed 104 weeks, study length 104 weeks) 143 mg/kg/day.
With `O=C(OC[C@@H]1O[C@H](OC(=O)c2cc(O)c(O)c(OC(=O)c3cc(O)c(O)c(O)c3)c2)[C@@H](OC(=O)c2cc(O)c(O)c(OC(=O)c3cc(O)c(O)c(O)c3)c2)[C@H](OC(=O)c2cc(O)c(O)c(OC(=O)c3cc(O)c(O)c(O)c3)c2)[C@H]1OC(=O)c1cc(O)c(O)c(OC(=O)c2cc(O)c(O)c(O)c2)c1)c1cc(O)c(O)c(OC(=O)c2cc(O)c(O)c(O)c2)c1`, the TD50 by setting is: (rat, strain F344/DuCrj, females, in drinking water, site: any site (literature study), lesion: several types, types named in the paper, dosed 104 weeks, study length 114 weeks) 620 mg/kg/day (inactive); (rat, strain F344/DuCrj, females, in drinking water, site: liver, lesion: hepatocellular adenoma, dosed 104 weeks, study length 114 weeks) 16000 mg/kg/day (inactive). For the same compound, the carcinogen call by setting is: (rat, strain F344/DuCrj, males, in drinking water, site: any site (literature study), lesion: several types, types named in the paper, dosed 104 weeks, study length 114 weeks) “negative (inactive)”; (rat, strain F344/DuCrj, males, in drinking water, site: liver, lesion: hepatocellular adenoma, dosed 104 weeks, study length 114 weeks) “negative (inactive)”.
Regarding `c1ccc(NNc2ccccc2)cc1`, the TD50 reads like this: (mouse, strain B6C3F1, females, in feed, site: any site (literature study), lesion: several types, types named in the paper, dosed 78 weeks, study length 95 weeks) 31.5 mg/kg/day; (mouse, strain B6C3F1, females, in feed, site: liver, lesion: hepatocellular adenoma + hepatocellular carcinoma + neoplastic nodule, dosed 78 weeks, study length 95 weeks) 26 mg/kg/day; (mouse, strain B6C3F1, females, in feed, site: liver, lesion: hepatocellular adenoma + hepatocellular carcinoma, dosed 78 weeks, study length 95 weeks) 26 mg/kg/day; (mouse, strain B6C3F1, females, in feed, site: liver, lesion: hepatocellular carcinoma, dosed 78 weeks, study length 95 weeks) 29.7 mg/kg/day; (mouse, strain B6C3F1, females, in feed, site: lung, lesion: alveolar/bronchiolar adenoma + alveolar/bronchiolar carcinoma, dosed 78 weeks, study length 95 weeks) 8760 mg/kg/day; (mouse, strain B6C3F1, males, in feed, site: liver, lesion: hepatocellular adenoma + hepatocellular carcinoma + neoplastic nodule, dosed 78 weeks, study length 95 weeks) 1090 mg/kg/day. The TD50 runs as follows: (rat, strain Fischer 344, females, in feed, site: any site (literature study), lesion: several types, types named in the paper, dosed 78 weeks, study length 106 weeks) 4.5 mg/kg/day; (rat, strain Fischer 344, females, in feed, site: liver + mammary gland, lesion: neoplastic nodule + adenocarcinoma, NOS, dosed 78 weeks, study length 106 weeks) 6.74 mg/kg/day; (rat, strain Fischer 344, females, in feed, site: liver, lesion: hepatocellular adenoma + hepatocellular carcinoma + neoplastic nodule, dosed 78 weeks, study length 106 weeks) 18.1 mg/kg/day; (rat, strain Fischer 344, females, in feed, site: liver, lesion: neoplastic nodule, dosed 78 weeks, study length 106 weeks) 18.1 mg/kg/day; (rat, strain Fischer 344, females, in feed, site: mammary gland, lesion: adenocarcinoma, NOS, dosed 78 weeks, study length 106 weeks) 11.4 mg/kg/day; (rat, strain Fischer 344, males, in feed, site: Zymbal's gland, lesion: squamous-cell carcinoma, dosed 78 weeks, study length 106 weeks) 38.5 mg/kg/day. Further, the TD50 is, setting by setting: (rat, strain Fischer 344, males, in feed, site: adrenal gland, lesion: pheochromocytoma, dosed 78 weeks, study length 106 weeks) 16.2 mg/kg/day; (rat, strain Fischer 344, males, in feed, site: any site (literature study), lesion: several types, types named in the paper, dosed 78 weeks, study length 106 weeks) 6.85 mg/kg/day; (rat, strain Fischer 344, males, in feed, site: ear canal + Zymbal's gland, lesion: squamous-cell carcinoma + squamous-cell papilloma, dosed 78 weeks, study length 106 weeks) 35.8 mg/kg/day; (rat, strain Fischer 344, males, in feed, site: liver + Zymbal's gland, lesion: hepatocellular carcinoma + neoplastic nodule + squamous-cell carcinoma, dosed 78 weeks, study length 106 weeks) 3.55 mg/kg/day; (rat, strain Fischer 344, males, in feed, site: liver, lesion: hepatocellular adenoma + hepatocellular carcinoma + neoplastic nodule, dosed 78 weeks, study length 106 weeks) 3.7 mg/kg/day; (rat, strain Fischer 344, males, in feed, site: liver, lesion: hepatocellular carcinoma + neoplastic nodule, dosed 78 weeks, study length 106 weeks) 3.7 mg/kg/day. The TD50 (rat, strain Fischer 344, males, in feed, site: liver, lesion: hepatocellular carcinoma, dosed 78 weeks, study length 106 weeks) is 4.67 mg/kg/day. The carcinogen call (mouse, strain B6C3F1, males, in feed, site: any site (literature study), lesion: several types, types named in the paper, dosed 78 weeks, study length 95 weeks) was “negative (inactive)”.
Regarding `CC(=O)[O-].CC(=O)[O-].[OH-].[OH-].[OH-].[OH-].[Pb+2].[Pb+2].[Pb+2]`, the carcinogen call by setting is: (mouse, strain Swiss, females, in feed, site: kidney, lesion: adenoma, dosed 104 weeks, study length 104 weeks) “positive”; (rat, strain Sprague-Dawley, males, in feed, site: liver, lesion: one or several types, types not named, dosed 79 weeks, study length 79 weeks) “negative (inactive)”. The TD50 is 14800 mg/kg/day (mouse, strain Swiss, females, in feed, site: kidney, lesion: carcinoma, dosed 104 weeks, study length 104 weeks); 986 mg/kg/day (mouse, strain Swiss, males, in feed, site: kidney, lesion: adenoma, dosed 86 weeks, study length 104 weeks); 472 mg/kg/day (mouse, strain Swiss, males, in feed, site: kidney, lesion: carcinoma, dosed 86 weeks, study length 104 weeks); 266 mg/kg/day (rat, strain Sprague-Dawley, males, in feed, site: kidney, lesion: several types, types named in the paper, dosed 79 weeks, study length 79 weeks); 339 mg/kg/day (rat, strain Wistar, females, in feed, site: kidney, lesion: several types, types named in the paper, dosed 104 weeks, study length 104 weeks); 107 mg/kg/day (rat, strain Wistar, females, in feed, site: kidney, lesion: several types, types named in the paper, dosed 126 weeks, study length 126 weeks). For the same compound, the TD50 is, setting by setting: (rat, strain Wistar, males, in feed, site: kidney, lesion: several types, types named in the paper, dosed 104 weeks, study length 104 weeks) 443 mg/kg/day; (rat, strain Wistar, males, in feed, site: kidney, lesion: several types, types named in the paper, dosed 126 weeks, study length 126 weeks) 107 mg/kg/day.
Take `O=[N+]([O-])c1ccc(-c2nc(NCCO)c3ccccc3n2)s1`: the TD50 by setting is: (rat, strain Sprague-Dawley, females, in feed, site: any site (literature study), lesion: several types, types named in the paper, dosed 46 weeks, study length 66 weeks) 1.87 mg/kg/day; (rat, strain Sprague-Dawley, females, in feed, site: intestine, lesion: leiomyosarcoma, dosed 46 weeks, study length 66 weeks) 3.84 mg/kg/day; (rat, strain Sprague-Dawley, females, in feed, site: liver, lesion: bile duct adenoma, dosed 46 weeks, study length 66 weeks) 132 mg/kg/day.
Regarding `Oc1ccc(Cl)cc1Cl`, the carcinogen call runs as follows: (mouse, strain B6C3F1, females, in feed, site: any site (literature study), lesion: several types, types named in the paper, dosed 103 weeks, study length 104 weeks) “negative (inactive)”; (rat, strain Fischer 344, females, in feed, site: any site (literature study), lesion: several types, types named in the paper, dosed 103 weeks, study length 104 weeks) “negative (inactive)”; (rat, strain Fischer 344, males, in feed, site: any site (literature study), lesion: several types, types named in the paper, dosed 103 weeks, study length 104 weeks) “negative (inactive)”. Further, the TD50 runs as follows: (mouse, strain B6C3F1, males, in feed, site: forestomach, lesion: squamous-cell carcinoma + squamous-cell papilloma, dosed 103 weeks, study length 104 weeks) 12400 mg/kg/day (inactive); (mouse, strain B6C3F1, males, in feed, site: liver, lesion: hepatocellular adenoma + hepatocellular carcinoma + neoplastic nodule, dosed 103 weeks, study length 104 weeks) 458000 mg/kg/day; (mouse, strain B6C3F1, males, in feed, site: lung, lesion: alveolar/bronchiolar adenoma + alveolar/bronchiolar carcinoma, dosed 103 weeks, study length 104 weeks) 13300 mg/kg/day.
